Structures can show the parent of a compound that is named as a salt.
Experiments:
corneal epithelial cells [1] = details: Non-Patent Document 1; cited from earlier work
corneal epithelial cells [2] = details: Non-Patent Document 3; cited from earlier work
[3] = Patent Document 1; cited from earlier work
[4] = test system: SV40 immortalized human corneal epithelial cells (HCE-T); experiment: Pharmacological Test 2: treatment before UV-B irradiation (120 mJ/cm^2), cell death inhibition ratio; format: cell-based; details: for Cell death inhibition ratio: average N=3
Protocol: A test similar to Pharmacological test 1 was conducted with the irradiation condition of UV-B varied.
After conducting operations similar to those in Pharmacological test 1, the 10% FBS-containing DMEM/F-12 culture medium was replaced by PBS containing 0.05% (w/v) flavin adenine dinucleotide disodium salt, PBS containing 0.05% (w/v) sodium hyaluronate, PBS containing 0.05% (w/v) sodium hyaluronate and 0.05% (w/v) flavin adenine dinucleotide disodium salt, PBS containing 0.3% (w/v) sodium hyaluronate, PBS containing 0.3% (w/v) sodium hyaluronate and 0.05% (w/v) flavin adenine dinucleotide disodium salt, or PBS not containing a test substance (hereinafter, referred to as “0.05% FAD group”, “0.05% HA group”, “0.05% HA/0.05% FAD group”, “0.3% HA group”, “0.3% HA/0.05% FAD group” or “base group”, respectively). Then, corneal epithelial cells were irradiated with UV-B (120 mJ/cm^2) for about 2 minutes, and again operations similar to those in Pharmacological test 1 were conducted. Then, according to the expression 1, the viability was calculated, and further, according to the following expression 2, the cell death inhibition ratio of each group was calculated.
Cell death inhibition ratio (%)=Viability of each group−Viability of base group [Expression 2]

[5] = test system: SV40 immortalized human corneal epithelial cells; experiment: Pharmacological Test 3: treatment after UV-B irradiation (80 mJ/cm^2), viability of corneal epithelial cells; format: cell-based; details: treated 60 minutes after UV-B irradiation (80 mJ/cm^2, about 1 minute); 0.1% (w/v) sodium hyaluronate, 0.05% (w/v) flavin adenine dinucleotide disodium salt, or both; FIG. 2
Protocol: Whether or not the decline of the number of living cells by ultraviolet irradiation is inhibited when corneal epithelial cells are treated with the present agent after ultraviolet (UV-B) irradiation was evaluated.
SV40 immortalized human corneal epithelial cells were inoculated in a 96-well plate (1×10^4 cells/well), and cultured in a 10% FBS-containing DMEM/F-12 culture medium for a day. On the next day, corneal epithelial cells were irradiated with UV-B (80 mJ/cm^2) for about 1 minute. Then the 10% FBS-containing DMEM/F-12 culture medium was replaced by PBS containing 0.1% (w/v) sodium hyaluronate, PBS containing 0.05% (w/v) flavin adenine dinucleotide disodium salt, PBS containing 0.1% (w/v) sodium hyaluronate and 0.05% (w/v) flavin adenine dinucleotide disodium salt, or PBS not containing a test substance, and then cultured at 37° C. for 60 minutes (hereinafter, referred to as “0.1% HA group”, “0.05% FAD group”, “0.1% HA/0.05% FAD group” or “base group”, respectively). Then, after replacing the culture medium of each group by a 10% FBS-containing DMEM/F-12 culture medium, the cells were cultured at 37° C. for 24 hours, and then the number of living cells was determined by using Cell Titer 96 (registered trade name) AQueous One Solution Cell Proliferation Assay, and the viability was calculated according to the following expression 3. […]

[6] = test system: SV40 immortalized human corneal epithelial cells; experiment: Pharmacological Test 4: treatment before exposure to dryness, viability of corneal epithelial cells; format: cell-based; details: treated 60 minutes before exposure to dryness for 15 minutes; 0.1% HA, 0.05% FAD or 0.1% HA/0.05% FAD in D-MEM/F12; FIG. 3
Protocol: Whether or not the decline of the number of living cells by dryness is inhibited when corneal epithelial cells are treated with the present agent before exposure to dryness was evaluated.
SV40 immortalized human corneal epithelial cells were inoculated in a 96-well plate (1×10^4 cells/well), and cultured in a 10% FBS-containing DMEM/F-12 culture medium for a day. On the next day, the culture medium was replaced by a D-MEM/F12 culture medium containing 0.1% (w/v) sodium hyaluronate, a D-MEM/F12 culture medium containing 0.05% (w/v) flavin adenine dinucleotide disodium salt, a D-MEM/F12 culture medium containing 0.1% (w/v) sodium hyaluronate and 0.05% (w/v) flavin adenine dinucleotide disodium salt, or a D-MEM/F12 culture medium not containing a test substance, and then cells were cultured at 37° C. for 60 minutes (hereinafter, referred to as “0.1% HA group”, “0.05% FAD group”, “0.1% HA/0.05% FAD group” or “base group”, respectively). After culturing, the culture medium of each group was removed, and then cells were exposed to dryness for 15 minutes. After exposure to dryness, the number of living cells was determined by using Cell Titer 96 (registered trade name) AQueous One Solution Cell Proliferation Assay, and the viability was calculated according to the following expression 4. […]

[7] = single substance 0.05% (w/v) in PBS before UV-B (120 mJ/cm^2, about 2 minutes)

| Compound | Cell death inhibition ratio [4, 7] [%] | inhibition of corneal epithelial cell death (in words) [5] | action of inhibiting corneal epithelial cell death (in words) [6] | other results |
| --- | --- | --- | --- | --- |
| hyaluronic acid or a salt thereof [hyaluronic acid or the like] | – | – | – | Caspase-3/7 activation by UV-B irradiation (corneal epithelial cells [1]): inhibits; increase in production of active oxygen by corneal epithelial cells by UV-B irradiation (corneal epithelial cells [1]): inhibits; cell death of corneal epithelial cells induced by dryness (corneal epithelial cells [2]): does not inhibit |
| Cc1cc2nc3c(=O)[nH]c(=O)nc-3n(C[C@H](O)[C@H](O)[C@H](O)COP(=O)(O)OP(=O)(O)OC[C@H]3O[C@@H](n4cnc5c(N)ncnc54)C(O)C3O)c2cc1C (stereo partly drawn) [FAD or the like, flavin adenine dinucleotide (FAD) or a salt thereof] | – | – | – | lacrimal secretagogue action [3]: has a lacrimal secretagogue action |
| Cc1cc2nc3c(=O)[nH]c(=O)nc-3n(C[C@H](O)[C@H](O)[C@H](O)COP(=O)([O-])OP(=O)([O-])OC[C@H]3O[C@@H](n4cnc5c(N)ncnc54)[C@H](O)[C@@H]3O)c2cc1C.[Na+].[Na+] [FAD, flavin adenine dinucleotide disodium salt] | 48.78 | little observed | the action was not observed | – |
| sodium hyaluronate [HA] | −0.17 | little observed | an action of inhibiting corneal epithelial cell death was observed | Cell death inhibition ratio ([4]; single substance 0.3% (w/v) in PBS before UV-B (120 mJ/cm^2, about 2 minutes)): 4.17%; inhibition of corneal epithelial cell death by UV-B irradiation (in words) ([4]; treatment before UV-B irradiation (120 mJ/cm^2, about 2 minutes)): little inhibit |
